# According to US20260263391A1, “COMPOUND AND USE THEREOF” (BENETHERA (SHAOXING) BIOTECHNOLOGY CO., LTD., priority 2023, published 2026):
# Assays:
# [1] = test system: Psoriasis mouse model; assay: IL-23 psoriasis mouse model, comparative efficacy of Compound 1 ointment and Flecainide ointment, symptom score; format: in vivo, mice; settings: 0.1% ointment; for therapeutic effect compared to the model group: 30 mg applied on the back for 4 consecutive days
# Method: (§1) Psoriasis mouse model was established by intradermal injection of recombinant […] (1 ng/20 μL PBS, per mouse per day for 4 consecutive days) into depilated mice on the back.
# Each group was applied with different substances (as shown in Table 1) on the backs of the mice for 4 consecutive days. The symptoms of the model mice and the treatment group mice were scored from Day 1.
# The calculation rule or the number of days was: the number of days will be calculated from the end of modeling, which will be recorded as Day 0, followed by Day 1, Day 2, etc.
# The formulation and preparation method of Flecainide ointment can be referred to as Example 4, which differed from Example 4 only in that the main drug was replaced with an equivalent amount of Flecainide (wherein the mass concentration of flecainide in the flecainide ointment was 0.1%).
# (§2) Scoring criteria: 0 points, no symptom; 1 point, skin erythema; 2 points, scattered scurf, 3 points, diffuse dandruff, 4 points, skin sclerosis; 5 points, erythroderma or death.
# [2] = test system: Psoriasis mouse model; settings: 0.025% ointment, 200 mg applied on the back for 6 consecutive days
# Method: Psoriasis mouse model was established by intradermal injection of recombinant TL-23 (1 ng/20 μL PBS, per mouse per day for 4 consecutive days) into depilated mice on the back.
# Each group was applied with different substances (as shown in Table 3) on the backs of the mice for 6 consecutive days. From Day 1, the symptoms of the back skin of the model mice and the mice in the treatment group were scored every day.
# [3] = test system: Psoriasis mouse model; settings: ointment 30 mg applied for 4 consecutive days, scored on Day 6; 0.01%, 0.1%, 0.2%, 0.5%, 1% tested
# Method: as §1
# (§3) The calculation rule for the number of days was: the number of days will be calculated from the end of modeling, which will be recorded as Day 0, followed by Day 1, Day 2, etc.
# as §2
# [4] = test system: Psoriasis mouse model; assay: IL-23 psoriasis mouse model, Compound 1 by subcutaneous or intradermal injection, symptom score; format: in vivo, mice; settings: for symptom score: 4 consecutive days, scored on Day 6, scale 0-5
# Method: as §1
# On Day 2 after modeling, the psoriasis model mice were randomly divided into 3 groups, with the same number of mice in each group, and divided into a model group, treatment group (the treatment group included a subcutaneous treatment group and an intradermal treatment group), with the model group as a control. […] The model group was injected with 20 μL of normal saline intradermally. All three groups were injected for 4 consecutive days. On Day 6, the symptoms of the model and treatment groups were scored.
# as §3, §2
# [5] = 30 mg applied on the back, scale 0-5
smiles,measurement,setting,value
O=C(NCC1CCCCN1)c1cc(OCC(F)(F)F)ccc1OCC(F)(F)F (stereo not drawn) [Flecainide],therapeutic effect compared to the model group,[1],neither the Flecainide ointment nor the ointment alone had a therapeutic effect
same,symptom score on Day 2,[1]; [5],3 points
same,symptom score on Days 2 to 7,"[1]; 30 mg applied on the back, Days 2 to 7, scale 0-5",3 points
"CCCNC[C@H](O)COc1ccccc1C(=O)CCc1ccccc1 [Compound 2, S-propafenone]",treatment effect,[2],showed no treatment effect
"CCCNC[C@@H](O)COc1ccccc1C(=O)CCc1ccccc1 [Compound 3, R-propafenone]",treatment effect,[2],the treatment effect was more obvious
"CCCNCC(O)COc1ccccc1C(=O)CCc1ccccc1 (stereo not drawn) [Compound 1, propafenone]",effective window dose of ointment (mass concentration) compared to the model group,[3],0.1%-0.5%
same,therapeutic effect in dosing explorations,"[4]; intracutaneous injections at 10 μg, 20 μg, 50 μg, 100 μg, 200 μg, 500 μg, 1 mg, 2 mg, 5 mg and 10 mg",had therapeutic effects
same,symptom score,"[4]; intradermal injection on the back, 0.07 mg per mouse per day",~2 points
same,therapeutic effect compared with the model group and the subcutaneous treatment group,"[4]; intradermal injection, 0.07 mg per mouse per day, Day 6",significant therapeutic effect
same,symptom score,"[4]; subcutaneous injection on the back, 0.07 mg per mouse per day",~3 points
same,therapeutic effect compared to the model group,[1],significant therapeutic effect
same,symptom score on Day 2,[1]; [5],2 points
same,symptom score on Days 3 to 4,"[1]; 30 mg applied on the back, Days 3 to 4, scale 0-5",3 points
same,symptom score on Days 7 and 8,"[1]; 30 mg applied on the back, Days 7 and 8, scale 0-5",1 points
same,symptom score from Day 5,"[1]; 30 mg applied on the back, from Day 5, scale 0-5",≤ 2 points
